Assay results published in patent US20210047366A1, “ANDRIAS DAVIDIANUS CARTILAGE PREPARATION” (TSINGHUA UNIVERSITY, priority 2017, published 2021).
No end group written: not given here.

Target: XOD (xanthine oxidase) enzyme (Sigma, derived from milk) (Bos taurus, UniProt P80457)
Assay: XOD enzyme activity inhibition (XOD enzyme activity detection kit, uric acid absorption at 295 nm)
Details: for IC50: half-inhibitory concentration on XOD; for XOD enzyme activity inhibition: concentration three times the half-inhibitory concentration

Sequence of XOD (xanthine oxidase) enzyme (Sigma, derived from milk) (P80457 whole entry): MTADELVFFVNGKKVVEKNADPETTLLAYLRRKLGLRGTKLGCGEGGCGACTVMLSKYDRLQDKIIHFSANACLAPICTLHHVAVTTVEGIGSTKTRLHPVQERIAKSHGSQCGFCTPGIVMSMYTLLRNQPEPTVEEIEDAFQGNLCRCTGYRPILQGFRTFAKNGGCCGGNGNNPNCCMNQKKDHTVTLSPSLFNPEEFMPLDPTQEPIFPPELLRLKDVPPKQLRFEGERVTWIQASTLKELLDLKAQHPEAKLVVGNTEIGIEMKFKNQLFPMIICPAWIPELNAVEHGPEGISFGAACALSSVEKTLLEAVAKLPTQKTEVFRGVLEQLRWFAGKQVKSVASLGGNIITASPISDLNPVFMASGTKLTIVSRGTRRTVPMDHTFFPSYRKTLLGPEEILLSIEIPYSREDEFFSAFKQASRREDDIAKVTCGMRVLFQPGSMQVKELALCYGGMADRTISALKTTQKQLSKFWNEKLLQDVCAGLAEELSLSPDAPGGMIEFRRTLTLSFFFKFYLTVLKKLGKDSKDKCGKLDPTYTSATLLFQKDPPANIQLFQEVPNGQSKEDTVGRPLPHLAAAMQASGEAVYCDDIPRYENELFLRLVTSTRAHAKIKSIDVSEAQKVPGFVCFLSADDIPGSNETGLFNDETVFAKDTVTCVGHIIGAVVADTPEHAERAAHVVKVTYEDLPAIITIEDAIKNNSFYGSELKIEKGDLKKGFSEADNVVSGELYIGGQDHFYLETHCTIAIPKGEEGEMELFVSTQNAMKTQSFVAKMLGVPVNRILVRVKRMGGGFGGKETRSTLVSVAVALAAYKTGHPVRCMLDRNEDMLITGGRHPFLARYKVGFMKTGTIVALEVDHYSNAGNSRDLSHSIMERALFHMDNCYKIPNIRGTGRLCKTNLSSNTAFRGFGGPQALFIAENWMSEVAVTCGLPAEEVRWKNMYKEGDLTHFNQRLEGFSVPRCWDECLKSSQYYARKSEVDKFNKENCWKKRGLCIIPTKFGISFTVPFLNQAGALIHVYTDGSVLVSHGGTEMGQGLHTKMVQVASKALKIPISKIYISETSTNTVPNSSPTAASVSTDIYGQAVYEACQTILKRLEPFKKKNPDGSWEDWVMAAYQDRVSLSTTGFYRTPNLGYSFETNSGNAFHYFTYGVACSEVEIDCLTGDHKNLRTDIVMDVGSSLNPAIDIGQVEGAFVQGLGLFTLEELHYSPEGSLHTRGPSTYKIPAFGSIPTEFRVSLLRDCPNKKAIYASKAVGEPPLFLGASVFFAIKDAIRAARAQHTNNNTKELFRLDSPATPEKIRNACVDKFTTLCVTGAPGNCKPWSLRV

| Compound | IC50 (IC50(M), Table 5, molar) | XOD enzyme activity inhibition | IC50 | activity at 20 µg/mL (read-out: XOD activity (%)) | activity at 40 µg/mL (read-out: XOD activity (%)) | activity at 80 µg/mL (read-out: XOD activity (%)) | further results |
| --- | --- | --- | --- | --- | --- | --- | --- |
| Oc1ncnc2[nH]ncc12 [Allopurinol, reference compound] | – | – | – | – | – | – | XOD enzyme activity retained (concentration 30 μg/mL): about 10%; activity at 0.2 µg/mL (read-out: XOD activity (%)): 59.4%; activity at 0.4 µg/mL (read-out: XOD activity (%)): 34.7%; activity at 0.8 µg/mL (read-out: XOD activity (%)): 31.2% |
| DNLPPLPK [Peptide S4] | 6.72e-05 M | completely inhibited | 6.72e-05 M | 87.9% | 67.7% | 43.2% | – |
| HDLPLPLPE [Peptide S3] | 5.82e-05 M | completely inhibited | 5.82e-05 M | 87.2% | 67.3% | 46.9% | – |
| TGPLGPSPGP [Peptide S2] | 0.000125 M | completely inhibited | 0.000125 M | – | – | – | activity at 50 µg/mL (read-out: XOD activity (%)): 80%; activity at 100 µg/mL (read-out: XOD activity (%)): 55.8%; activity at 200 µg/mL (read-out: XOD activity (%)): 17.9% |
| VPSGPLGPEGPR [Peptide S1] | 0.00275 M | – | – | – | – | – | IC50 (same reaction system): 0.00275 M; activity at 2500 µg/mL (read-out: XOD activity (%)): 57.6%; activity at 5000 µg/mL (read-out: XOD activity (%)): 36.7%; activity at 10000 µg/mL (read-out: XOD activity (%)): 26.9% |
